Test [1] has as its system B16-F10. The test is described as follows: Cytotoxicity against mouse B16-F10 cells. It counts as functional, cell-based.
Test [2] can be described thus: Cytotoxicity against human T75 cells. It is filed as cell-based.
The nature of test [3]: Selectivity index, ratio for IC50 for human T75 cells to IC50 for human A2058 cells.
Test [4] deals with A2058. The test is described as follows: Cytotoxicity against human A2058 cells. It is filed as functional, cell-based.

Experimental findings from ChEMBL document CHEMBL4725273, “Structure-activity relationship study of cytotoxic neolignan derivatives using multivariate analysis and computation-aided drug design” (Bioorg Med Chem Lett, 2020) are described below.

With `CCCOc1c(OC)cc(CCC)cc1Oc1ccc(CCC)cc1OC`, the IC50 (commonly the concentration that gives 50% inhibition) is 79 µM in test [1], over 100 µM in test [2] and 52.2 µM in test [4]. The “Ratio IC50” value in test [3] is listed as over 1.9.
For the molecule `CCCc1ccc(Oc2cc(CCC)cc(OC)c2OC)c(OC)c1`, the IC50 in test [1], in test [2] and in test [4] was over 100 µM in each case.
As for `C=CCc1ccc(Oc2cc(CC=C)cc(OC)c2Oc2ccccc2)c(OC)c1`, the IC50 in test [1], in test [2] and in test [4] was over 100 µM each time.
On to `C=CCc1ccc(Oc2cc(C(=O)C=C)cc(OC)c2OC)c(OC)c1`, for which the IC50 in test [1], in test [2] and in test [4] was over 100 µM in each case.
Turning to `C=CCc1ccc(Oc2cc(C(=O)C=C)cc(OC)c2O)c(OC)c1`, the concentration for half-maximal inhibition (IC50) in test [1] is 82.2 µM; in test [2] it was over 100 µM; in test [4], 85.3 µM. Besides, the “Ratio IC50” value in test [3] was over 1.2.
For `C=CCc1ccc(Oc2cc(C(O)C=C)cc(OC)c2O)c(OC)c1` (stereo not given), the IC50 in test [1], in test [2] and in test [4] was over 100 µM in each case.
On to `COc1cc(C=O)ccc1Oc1cc(C=O)cc(OC)c1OC=O`, for which the IC50 in test [1] was 80.2 µM; in test [2], over 100 µM; in test [4] it was 61.4 µM. Besides, the “Ratio IC50” value in test [3] is reported as over 1.6.
For `COc1cc(CC(C)O)ccc1Oc1cc(CC(C)O)cc(OC)c1OCC(C)O` (stereo not given), the IC50 in test [1], in test [2] and in test [4] was over 100 µM throughout.
For `C=CCc1ccc(Oc2cc(C(O)C=C)cc(OC)c2OC)c(OC)c1` (stereo not given), the IC50 is 90.3 µM in test [1], over 100 µM in test [2] and over 100 µM in test [4].
For `COc1cc(CC(C)=O)ccc1Oc1cc(CC(C)=O)cc(OC)c1OCC(C)=O`, the IC50 in test [1], in test [2] and in test [4] was over 100 µM in each case.
In the case of `COc1cc(CCCO)ccc1Oc1cc(CCCO)cc(OC)c1OCCCO`, the half-maximal inhibitory concentration (IC50) in test [1], in test [2] and in test [4] was over 100 µM each time.
On to `CCCc1ccc(Oc2cc(CCC)cc(OC)c2Oc2ccccc2)c(OC)c1`, for which the IC50 in test [1], in test [2] and in test [4] was over 100 µM in each case.
As for `CCC(O)Oc1c(OC)cc(C(O)CC)cc1Oc1ccc(C(O)CC)cc1OC` (stereo not given), the IC50 in test [1], in test [2] and in test [4] was over 100 µM in each case.
Take `CCCS(=O)(=O)Nc1ccc(F)c(C(=O)c2c[nH]c3ncc(-c4ccc(Cl)cc4)cc23)c1F` [VEMURAFENIB]: the concentration for half-maximal inhibition (IC50) in test [2] is over 100 µM; in test [4], 8.7 µM. For the same molecule, the “Ratio IC50” value in test [3] is over 11.5.
